Experimental data published in the NIST ThermoML archive (doi:10.1016/j.jct.2011.02.008).

Assay: xn = mol fraction of the nth substance listed
Settings: Liquid, Vibrating tube method

COC(=O)c1ccccc1 [methyl benzoate] + CCCCCCO
mass density [kg/m3]
Settings | x1 = 0.1004 | x1 = 0.2007 | x1 = 0.3007 | x1 = 0.4013 | x1 = 0.5005 | x1 = 0.6009 | x1 = 0.7 | x1 = 0.8008 | x1 = 0.9009
278.15 K, 30000 kPa | – | – | – | – | – | – | – | 1064.2 | 1091.3
278.15 K, 35000 kPa | 876.5 | 903.6 | 931 | 958.3 | 985.4 | 1012.6 | 1039.4 | 1066.7 | 1093.8
278.15 K, 40000 kPa | 879 | 906.1 | 933.6 | 960.9 | 987.9 | 1015.1 | 1041.9 | 1069.2 | 1096.3
278.15 K, 45000 kPa | 881.5 | 908.6 | 936 | 963.3 | 990.4 | 1017.6 | 1044.3 | 1071.7 | 1098.7
278.15 K, 50000 kPa | 883.9 | 911.1 | 938.5 | 965.8 | 992.8 | 1020 | 1046.7 | 1074 | 1101.1
278.15 K, 55000 kPa | 886.3 | 913.4 | 940.8 | 968.1 | 995.2 | 1022.3 | 1049.1 | 1076.4 | 1103.5
278.15 K, 60000 kPa | 888.4 | 915.6 | 943 | 970.3 | 997.3 | 1024.5 | 1051.4 | 1078.7 | 1105.6
288.15 K, 100 kPa | 849.1 | 876 | 903.2 | 930.4 | 957.3 | 984.4 | 1011.1 | 1038.4 | 1065.5
288.15 K, 1000 kPa | 849.7 | 876.6 | 903.8 | 931 | 957.9 | 985 | – | – | –
